Each structure is given as a SMILES string. Peptide text beside a SMILES is read from it. * marks the point of attachment. X1 = C[N+](C)(CCCC(=O)*)CCCS(=O)(=O)[O-]

This series is described as follows: Aqueous solubility of zwitterion-modified hydrophobic peptides in de-ionized water. It is filed as physicochemical. The conditions noted are these: concentration giving a clear solution, peptide labeled at the α-amino group with Z3-PFP. The protocol:
Specifically, four representative hydrophobic peptides, penta(phenylalanine), a tetrapeptide with the sequence Phe-Gly-Gly-Phe, penta(leucine) and penta(isoleucine) were all labeled at the α-amino group with the amine-reactive, zwitterionic reagent Z3-PFP (compound 2c in Figure 1). One such labeling experiment is illustrated in Example 12. The zwitterion-modified peptides were purified by chromatography and their aqueous solubility was assessed by dissolving them in de-ionized water at concentrations that gave clear homogenous solutions. […] Penta(phenylalanine) modified by the zwitterion-containing compound Z3-PFP, compound 2c, dissolved in water and provided a clear solution at a concentration of ~0.5 mM.
Consider `CC[C@H](C)[C@H](NC(=O)[C@@H](NC(=O)[C@@H](NC(=O)[C@@H](NC(=O)[C@@H](NC(=O)CCC[N+](C)(C)CCCS(=O)(=O)[O-])[C@@H](C)CC)[C@@H](C)CC)[C@@H](C)CC)[C@@H](C)CC)C(=O)O` (X1-IIIII-OH), for which the solubility is at least 100 µM.

`C[N+](C)(CCCC(=O)N[C@@H](Cc1ccccc1)C(=O)N[C@@H](Cc1ccccc1)C(=O)N[C@@H](Cc1ccccc1)C(=O)N[C@@H](Cc1ccccc1)C(=O)N[C@@H](Cc1ccccc1)C(=O)O)CCCS(=O)(=O)[O-]` (X1-FFFFF-OH) had a solubility of at least 500 µM.

With `C[N+](C)(CCCC(=O)N[C@@H](Cc1ccccc1)C(=O)NCC(=O)NCC(=O)N[C@@H](Cc1ccccc1)C(=O)O)CCCS(=O)(=O)[O-]` (X1-FGGF-OH), the solubility is at least 3000 µM.

As for `CC(C)C[C@H](NC(=O)[C@H](CC(C)C)NC(=O)[C@H](CC(C)C)NC(=O)[C@H](CC(C)C)NC(=O)[C@H](CC(C)C)NC(=O)CCC[N+](C)(C)CCCS(=O)(=O)[O-])C(=O)O` (X1-LLLLL-OH), the solubility was at least 100 µM.

Values taken from EP4800020A2, “ZWITTERIONIC REAGENTS” (Siemens Healthcare Diagnostics, Inc., priority 2010, dated 2011).
